Data published in patent US20250032625A1, “HETEROBIFUNCTIONAL MOLECULES AS TEAD INHIBITORS” (Merck Patent GmbH, priority 2021, published 2025).
Read-outs that look alike come from different tables or passages of the source.

Experiments:
hsTEAD1 (209-426) [1] = target: T1, hsTEAD1 (209-426) (Homo sapiens (Human), UniProt P28347); experiment: Thermal shift measurement / Differential Scanning Fluorimetry (DSF); type: binding; settings: 100 uM compound, 2 hours at 4° C., triplicates; read-out: ΔTm TEAD1 (209-426)
Method: (§1) Interaction of exemplary compounds with the various TEAD isoforms TEAD1, TEAD2, TEAD3, and TEAD4 was performed in a DSF assay. YAP-binding domains (YBD) of the four isoforms were subcloned and heterogeneously expressed in E. coli as a host. Initial purification was perfomed by using affinity tags, which got removed by overnight protease treatment. Further purification of TEAD isoforms was performed by Size-Exclusion Chromatography (SEC). Target protein containing fractions were pooled, concentrated with an Amicon (10 KDa MWCO) and quantified using the Bradford assay. Exemplary compound testing in the DSF assay for determining the shift of the TEAD isoform melting temperatures has been performed as described below: DSF was performed in MicroAmpTM EnduraPlateTM Optical 96-Well Clear Reaction Plates (Applied Biosystems, Life Technologies, California, USA) using a QuantStudio 7 Flex Real-Time PCR System (Applied Biosystems). Protein samples were briefly centrifuged before preparation. The final reaction mixture (20 μL of total volume) contained 11.8 μM of […]1 (209-426), 7.3 μM of […]2 (217-447), 7.9 μM of […]3 (216-435) or 11.7 μM of […]4 (217-424), and 2 or 4-fold of Protein Thermal ShiftTM Dye (Applied Biosystems) diluted in protein buffer-20 mM Tris pH 8.0, 150 mM NaCl (+0.5 mM TCEP for TEAD1 experiments). Prior to the addition of the dye, proteins were incubated with either 1 μL DMSO 100% (apo) or 100 uM of each exemplary compound (1 μL at 2 mM in 100% DMSO added to the […] reaction mixture) for 2 hours at 4° C. The melting curve data was recorded from 25 to 90° C. with an increment rate of 0.016° C.s^-1. Excitation and emission filters were applied for Protein Thermal ShiftTM Dye (470 nm and 520 nm, respectively) and for ROX reference dye (580 nm and 623 nm, respectively). The melting temperatures (Tm) were obtained by calculating the midpoint of each transition, using the Protein Thermal Shift SoftwareTM version 1.3. The thermal stability effect of each compound (ΔTm) was calculated by subtracting the calculated Tm in presence and absence (apo) of compound. All samples were tested in triplicates.

hsTEAD4 (217-424) = hsTEAD4 (217-424) (Homo sapiens (Human), UniProt Q15561); experiment: as above; type: binding; settings: 100 uM compound, 2 hours at 4° C., triplicates; read-out: ΔTm TEAD4 217-434
Method: as §1

hsTEAD1 (209-426) [2] = target: T1, hsTEAD1 (209-426); experiment: Surface Plasmon Resonance (SPR) assay; type: binding; settings: Biacore 4000, 15° C., 1:1 Langmuir model, read-out: KD TEAD1 (209-426)
Method: The kinetic and affinity parameters of protein-exemplary compound interactions were evaluated by SPR. hsTEAD1 (209-426) was immobilized onto a CM7 (Series S) sensor chip via the standard amine coupling procedure, at 15° C. Prior to immobilization, the carboxymethylated surface of the chip was activated with 400 mM 1-ethyl-3-(3-dimethylaminopropyl)-carbodiimide and 100 mM N-hydroxysuccinimide for 10 min. hsTEAD1 (209-426) was diluted to 11 μg/mL in 10 mM Bis-Tris at pH 6.5 and immobilized on the activated surface chip for 8 and 10 min, in order to reach 6000 to 9000 response units (RU). The remaining activated carboxymethylated groups were blocked with a 7 min injection of 1 M ethanolamine pH 8.5 after which the surface chip was washed with 0.5% (w/v) sodium dodecyl sulphate and 50 mM glycine. HBS-N, which consists of 10 mM HEPES pH 7.4 and 150 mM NaCl, was used as the background buffer during immobilization. Exemplary compounds were prediluted in DMSO, diluted 1:50 in running buffer (20 mM Tris pH 7.4, 150 mM NaCl, 1 mM DTT, 5 mM MgCl2, 0.1 mM EGTA, 0.05% CHAPS) and injected at ten different concentrations using two-fold dilution series, from 100 μM to 0.2 μM. A DMSO solvent correction (1%-3%) was performed to account for variations in bulk signal and to achieve high-quality data. Interaction analysis cycles consisted of a 240 sec sample injection (30 μL/min; association phase) followed by 600 sec of buffer flow (dissociation phase).
All sensorgrams were processed by first subtracting the binding response recorded from the control surface (reference spot), followed by subtracting of the buffer blank injection from the reaction spot. All datasets were fit to a simple 1:1 Langmuir interaction model to determine the kinetic rate constants, KD. Experiments were performed on a Biacore 4000 (Cytiva, Uppsala, Sweden) at 15° C. and the interactions were evaluated using the provided Biacore 4000 evaluation software.

TEAD1 in NCI-H226 cells = TEAD1 in NCI-H226 cells (Homo sapiens (Human), UniProt P28347); experiment: TEAD degradation in NCI-H226 cell line (immunofluorescence); type: cell-based
Procedure, shortened: (§2)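 SK-HEP1 and NCI-H226 cells were treated in duplicate for 16 or 24 h at 37 °C with compound (10 points, 1:3, top 30 µM final). After fixation, TEAD1 was immunostained with anti-TEF1 and per-cell fluorescence quantified by high-content imaging. DC50 from curve fitting.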

TEAD1 in SK-HEP1 cells = TEAD1 in SK-HEP1 cells (Homo sapiens (Human), UniProt P28347); experiment: TEAD degradation in SK-HEP1 cell line (immunofluorescence); type: cell-based
Procedure, shortened: as §2

[3] = 24 h incubation, read-out: DC50 NCI-H226 24 h
[4] = 24 hours, ranges, read-out: DC50 NCI-H226
[5] = 24 hours, ranges, read-out: DC50 SK-HEP1

T1 sequence (P28347 209-426): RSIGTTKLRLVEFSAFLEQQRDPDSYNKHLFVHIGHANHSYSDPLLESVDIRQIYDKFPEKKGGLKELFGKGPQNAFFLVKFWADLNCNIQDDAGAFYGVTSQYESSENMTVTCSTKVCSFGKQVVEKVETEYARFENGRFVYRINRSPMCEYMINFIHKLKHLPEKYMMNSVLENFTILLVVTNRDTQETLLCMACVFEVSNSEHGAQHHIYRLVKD
TEAD1 in NCI-H226 cells, sequence (P28347 whole entry): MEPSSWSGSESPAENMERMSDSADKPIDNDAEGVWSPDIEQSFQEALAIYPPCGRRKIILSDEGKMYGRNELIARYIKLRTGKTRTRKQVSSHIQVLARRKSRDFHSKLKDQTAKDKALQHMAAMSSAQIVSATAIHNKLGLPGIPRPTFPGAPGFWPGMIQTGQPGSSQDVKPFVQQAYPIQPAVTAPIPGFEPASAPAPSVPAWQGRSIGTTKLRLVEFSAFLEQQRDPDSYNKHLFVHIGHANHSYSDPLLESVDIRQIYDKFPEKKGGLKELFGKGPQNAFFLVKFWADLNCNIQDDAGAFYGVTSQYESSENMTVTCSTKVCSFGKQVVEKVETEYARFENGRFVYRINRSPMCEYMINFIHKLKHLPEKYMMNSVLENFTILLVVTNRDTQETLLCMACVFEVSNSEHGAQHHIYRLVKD
TEAD1 in SK-HEP1 cells, sequence (P28347 whole entry): as above
hsTEAD4 (217-424), sequence (Q15561 217-434): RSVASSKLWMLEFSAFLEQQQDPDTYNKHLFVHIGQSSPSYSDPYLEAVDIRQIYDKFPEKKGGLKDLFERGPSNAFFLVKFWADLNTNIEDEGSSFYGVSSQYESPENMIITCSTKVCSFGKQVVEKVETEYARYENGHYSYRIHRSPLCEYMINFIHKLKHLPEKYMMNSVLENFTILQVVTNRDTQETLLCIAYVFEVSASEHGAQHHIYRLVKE

Row | Kd (hsTEAD1 (209-426) [2]) | DC50 (TEAD1 in NCI-H226 cells; [4]) | DC50 (TEAD1 in SK-HEP1 cells; [5]) | Compound | other results
1 | 0.32 µM |  |  | Cc1ncsc1-c1ccc(CNC(=O)[C@@H]2C[C@@H](O)CN2C(=O)[C@@H](NC(=O)COCCOCCOCCOCC(=O)NCCOCCOCCNC(=O)c2ccc3c(c2)c2cn(C)nc2n3-c2ccc(C(F)(F)F)cc2)C(C)(C)C)cc1 [Compound 3, N-[(2S)-1-[(2S,4R)-4-hydroxy-2-({[4-(4-methyl-1,3-thiazol-5-yl)phenyl]methyl}carbamoyl)pyrrolidin-1-yl]-3,3-dimethyl-1-oxobutan-2-yl]-N′-(2-{2-[2-({2-methyl-8-[4-(trifluoromethyl)phenyl]-2H,8H-pyrazolo[3,4-b]indol-5-yl}formamido)ethoxy]ethoxy}ethyl)-3,6,9,12-tetraoxatetradecanediamide] | ΔTm at 100 µM (hsTEAD1 (209-426) [1]): 3.4 °C; ΔTm at 100 µM (hsTEAD4 (217-424)): 0.7 °C; DC50 (TEAD1 in NCI-H226 cells; 16 h incubation, read-out: DC50 NCI-H226 16 h): 3 µM; DC50 (TEAD1 in NCI-H226 cells; [3]): 10 µM
2 | 1.4 µM | 0.1 to 1 µM |  | Cn1cc2c3cc(C(=O)NCCOCCOCCNC(=O)CCCCCCNc4cccc5c4C(=O)N(C4CCC(=O)NC4=O)C5=O)ccc3n(-c3ccc(C(F)(F)F)cc3)c2n1 (stereo not shown) [Compound 6, 7-{[2-(2,6-dioxopiperidin-3-yl)-1,3-dioxo-2,3-dihydro-1H-isoindol-4-yl]amino}-N-(2-{2-[2-({2-methyl-8-[4-(trifluoromethyl)phenyl]-2H,8H-pyrazolo[3,4-b]indol-5-yl}formamido)ethoxy]ethoxy}ethyl) heptanamide] | ΔTm at 100 µM (hsTEAD1 (209-426) [1]): -1.1 °C; ΔTm at 100 µM (hsTEAD4 (217-424)): 1.4 °C
3 | 0.97 µM |  | 1 to 3 µM | Cn1cc2c3cc(C(=O)NCCOCCOCCNC(=O)CCCCNc4cccc5c4CN(C4CCC(=O)NC4=O)C5=O)ccc3n(-c3ccc(C(F)(F)F)cc3)c2n1 (stereo not shown) [Compound 9, 5-{[2-(2,6-dioxopiperidin-3-yl)-1-oxo-2,3-dihydro-1H-isoindol-4-yl]amino}-N-(2-{2-[2-({2-methyl-8-[4-(trifluoromethyl)phenyl]-2H,8H-pyrazolo[3,4-b]indol-5-yl}formamido)ethoxy]ethoxy}ethyl) pentanamide] | DC50 (TEAD1 in SK-HEP1 cells; 24 h incubation, read-out: DC50 SK-HEP1 24 h): 2.4 µM; DC50 (TEAD1 in NCI-H226 cells; [3]): 30 µM
4 | 0.482 µM |  |  | Cn1cc2c3cc(C(=O)NCCOCCOCCNC(=O)CCCNc4cccc5c4CN(C4CCC(=O)NC4=O)C5=O)ccc3n(-c3ccc(C(F)(F)F)cc3)c2n1 (stereo not shown) [Compound 14, 4-{[2-(2,6-dioxopiperidin-3-yl)-1-oxo-2,3-dihydro-1H-isoindol-4-yl]amino}-N-(2-{2-[2-({2-methyl-8-[4-(trifluoromethyl)phenyl]-2H,8H-pyrazolo[3,4-b]indol-5-yl}formamido)ethoxy]ethoxy}ethyl) butanamide] | 
5 | 0.98 µM |  |  | CN1C(=O)CCC(N2C(=O)c3cccc(NC(=O)COCCOCCOCCOCCNC(=O)c4ccc5c(c4)c4cn(C)nc4n5-c4ccc(C(F)(F)F)cc4)c3C2=O)C1=O (stereo not shown) [Compound 36, N-[2-(1-methyl-2,6-dioxopiperidin-3-yl)-1,3-dioxo-2,3-dihydro-1H-isoindol-4-yl]-14-({2-methyl-8-[4-(trifluoromethyl)phenyl]-2H,8H-pyrazolo[3,4-b]indol-5-yl}formamido)-3,6,9,12-tetraoxatetradecanamide] | 
6 |  | 0.1 to 1 µM | 0.1 to 1 µM | Cc1ncsc1-c1ccc([C@H](C)NC(=O)[C@@H]2C[C@@H](O)CN2C(=O)[C@@H](NC(=O)CCCCCc2cn(CCCCOCCNC(=O)c3ccc4c(c3)c3cn(C)nc3n4-c3ccc(C(F)(F)F)cc3)nn2)C(C)(C)C)cc1 [Compound 82, (2S,4R)-1-[(2S)-3,3-dimethyl-2-[6-(1 {4-[2-({2-methyl-8-[4-(trifluoro-methyl)phenyl]-2H,8H-pyrazolo[3,4-b]indol-5-yl}formamido)ethoxy]butyl}-1H-1,2,3-triazol-4-yl)hexanamido]butanoyl]-4-hydroxy-N-[(1S)-1-[4-(4-methyl-1,3-thiazol-5-yl)phenyl]ethyl]pyrrolidine-2-carboxamide] | 
7 |  | < 0.1 µM | < 0.1 µM | Cn1cc2c3cc(C(=O)NCCOCCOCCOCCOCCOCCOCCNc4cccc5c4C(=O)N(C4CCC(=O)NC4=O)C5=O)ccc3n(-c3ccc(C(F)(F)F)cc3)c2n1 (stereo not shown) [Compound 87, N-(20-{[2-(2,6-dioxopiperidin-3-yl)-1,3-dioxo-2,3-dihydro-1H-isoindol-4-yl]amino}-3,6,9,12,15,18-hexaoxaicosan-1-yl)-2-methyl-8-[4-(trifluoromethyl)phenyl]-2H,8H-pyrazolo[3,4-b]indole-5-carboxamide] | 
8 |  | 0.1 to 1 µM | 0.1 to 1 µM | Cn1cc2c3cc(C(=O)NCCOCCOCCOCCOCCOc4ccc5c(c4)C(=O)N(C4CCC(=O)NC4=O)C5=O)ccc3n(-c3ccc(C(F)(F)F)cc3)c2n1 (stereo not shown) [Compound 88, N-(14-{[2-(2,6-dioxopiperidin-3-yl)-1,3-dioxo-2,3-dihydro-1H-isoindol-5-yl]oxy}-3,6,9,12-tetraoxatetradecan-1-yl)-2-methyl-8-[4-(trifluoromethyl)phenyl]-2H,8H-pyrazolo[3,4-b]indole-5-carboxamide] | 
9 |  | 0.1 to 1 µM | 0.1 to 1 µM | Cn1nc2c3cc(C(=O)NCCOCCOCCOCCOCCNc4cccc5c4C(=O)N(C4CCC(=O)NC4=O)C5=O)ccc3n([C@H]3CC[C@H](C(F)(F)F)CC3)c2n1 (stereo partly shown) [Compound 95, N-(14-{[2-(2,6-dioxopiperidin-3-yl)-1,3-dioxo-2,3-dihydro-1H-isoindol-4-yl]amino}-3,6,9,12-tetraoxatetradecan-1-yl)-2-methyl-4-[(1r,4r)-4-(trifluoromethyl)cyclohexyl]-2H,4H-[1,2,3]triazolo[4,5-b]indole-7-carboxamide] | 
10 |  | 0.1 to 1 µM | < 0.1 µM | Cn1cc2c3cc(C(=O)NCCOCCOCCOCCOCCNc4cccc5c4C(=O)N(C4CCC(=O)NC4=O)C5=O)ccc3n(CC3CCC(C(F)(F)F)CC3)c2n1 (stereo not shown) [Compound 99, N-(14-{[2-(2,6-dioxopiperidin-3-yl)-1,3-dioxo-2,3-dihydro-1H-isoindol-4-yl]amino}-3,6,9,12-tetraoxatetradecan-1-yl)-2-methyl-8-{[4-(trifluoromethyl)cyclohexyl]methyl}-2H,8H-pyrazolo[3,4-b]indole-5-carboxamide] | 
